Earlier results, collected in PMC2975871 (The FEBS journal, 2010).
Values after ≈ are worked out from the molar mass of the structure shown.

How the values were obtained:
[1] = tested on: PR with mutation I50V
[2] = tested on: I54M mutation

CC(C)CN(C[C@@H](O)[C@H](Cc1ccccc1)NC(=O)O[C@H]1CO[C@H]2OCC[C@H]21)S(=O)(=O)c1ccc(N)cc1 [DRV, darunavir]
worse inhibition relative to wild type enzyme [1]: 9 fold

CC(C)(C)NC(=O)[C@@H]1CN(Cc2cccnc2)CCN1C[C@@H](O)C[C@@H](Cc1ccccc1)C(=O)N[C@H]1c2ccccc2C[C@H]1O [IDV, indinavir]
decreased inhibition [1]: 50 fold

CC(C)(C)NC(=O)[C@@H]1C[C@@H]2CCCC[C@@H]2CN1C[C@@H](O)[C@H](Cc1ccccc1)NC(=O)[C@H](CC(N)=O)NC(=O)c1ccc2ccccc2n1 [SQV, saquinavir]
water solubility: 36 µg/mL (≈ 53.7 µM) | decreased inhibition [1]: 20 fold

CC(C)CN(C[C@@H](O)[C@H](Cc1ccccc1)NC(=O)O[C@H]1CCOC1)S(=O)(=O)c1ccc(N)cc1 [amprenavir]
increased IC50 [2]: 6 fold
